Key:
[1] = classification of the substance (M+/M−); cited from earlier work
liver = settings: in vivo; cited from earlier work
[2] = system: mRNA expressed from the genes (A) to (D) in rat liver; test: Behavior of genes (mRNA expression level, oligo-DNA microarray) in rat liver after 28-day oral administration; type: in vivo; settings: for Behavior of gene caused by administration of chemical substance, Gene No. 4846 / Behavior of gene caused by administration of chemical substance, Gene No. 2026 / Behavior of gene caused by administration of chemical substance, Gene No. 4218 / Behavior of gene caused by administration of chemical substance, Gene No. 6182 / Behavior of gene caused by administration of chemical substance, Gene No. 5600: gene group (A); for Behavior of gene caused by administration of chemical substance, Gene No. 4846: Unigene No. Rn.144554; for Behavior of gene caused by administration of chemical substance, Gene No. 2026 / Behavior of gene caused by administration of chemical substance, Gene No. 4218: Unigene No. Rn.167075; for Behavior of gene caused by administration of chemical substance, Gene No. 6182: Unigene No. Rn.5834; for Behavior of gene caused by administration of chemical substance, Gene No. 5600: Unigene No. Rn.9836; for Behavior of gene caused by administration of chemical substance, Gene No. 1494 / Behavior of gene caused by administration of chemical substance, Gene No. 2045 / Behavior of gene caused by administration of chemical substance, Gene No. 2203: gene group (B); for Behavior of gene caused by administration of chemical substance, Gene No. 1494: Unigene No. Rn.1430; for Behavior of gene caused by administration of chemical substance, Gene No. 2045: Unigene No. Rn.19329; for Behavior of gene caused by administration of chemical substance, Gene No. 2203: Unigene No. Rn.21240; for Behavior of gene caused by administration of chemical substance, Gene No. 533 / Behavior of gene caused by administration of chemical substance, Gene No. 725 / Behavior of gene caused by administration of chemical substance, Gene No. 1163 / Behavior of gene caused by administration of chemical substance, Gene No. 4973 / Behavior of gene caused by administration of chemical substance, Gene No. 4095 / Behavior of gene caused by administration of chemical substance, Gene No. 1334 / Behavior of gene caused by administration of chemical substance, Gene No. 6620 / Behavior of gene caused by administration of chemical substance, Gene No. 6303 / Behavior of gene caused by administration of chemical substance, Gene No. 5878 / Behavior of gene caused by administration of chemical substance, Gene No. 1131 / Behavior of gene caused by administration of chemical substance, Gene No. 1562 / Behavior of gene caused by administration of chemical substance, Gene No. 1741 / Behavior of gene caused by administration of chemical substance, Gene No. 893 / Behavior of gene caused by administration of chemical substance, Gene No. 6026 / Behavior of gene caused by administration of chemical substance, Gene No. 154 / Behavior of gene caused by administration of chemical substance, Gene No. 1993 / Behavior of gene caused by administration of chemical substance, Gene No. 813 / Behavior of gene caused by administration of chemical substance, Gene No. 2494 / Behavior of gene caused by administration of chemical substance, Gene No. 2546 / Behavior of gene caused by administration of chemical substance, Gene No. 3776 / Behavior of gene caused by administration of chemical substance, Gene No. 3929 / Behavior of gene caused by administration of chemical substance, Gene No. 1119 / Behavior of gene caused by administration of chemical substance, Gene No. 6742 / Behavior of gene caused by administration of chemical substance, Gene No. 5634: gene group (C); for Behavior of gene caused by administration of chemical substance, Gene No. 533: Unigene No. Rn.106184; for Behavior of gene caused by administration of chemical substance, Gene No. 725: Unigene No. Rn.108075; for Behavior of gene caused by administration of chemical substance, Gene No. 1163: Unigene No. Rn.11766; for Behavior of gene caused by administration of chemical substance, Gene No. 4973: Unigene No. Rn.118529; for Behavior of gene caused by administration of chemical substance, Gene No. 4095: Unigene No. Rn.119024; for Behavior of gene caused by administration of chemical substance, Gene No. 1334 / Behavior of gene caused by administration of chemical substance, Gene No. 6620: Unigene No. Rn.120914; for Behavior of gene caused by administration of chemical substance, Gene No. 6303: Unigene No. Rn.123063; for Behavior of gene caused by administration of chemical substance, Gene No. 5878: Unigene No. Rn.143213; for Behavior of gene caused by administration of chemical substance, Gene No. 1131: Unigene No. Rn.144946; for Behavior of gene caused by administration of chemical substance, Gene No. 1562: Unigene No. Rn.14744; for Behavior of gene caused by administration of chemical substance, Gene No. 1741: Unigene No. Rn.1647; for Behavior of gene caused by administration of chemical substance, Gene No. 893: Unigene No. Rn.164817; for Behavior of gene caused by administration of chemical substance, Gene No. 6026: Unigene No. Rn.167685; for Behavior of gene caused by administration of chemical substance, Gene No. 154: Unigene No. Rn.185941; for Behavior of gene caused by administration of chemical substance, Gene No. 1993: Unigene No. Rn.18728; for Behavior of gene caused by administration of chemical substance, Gene No. 813: Unigene No. Rn.201760; for Behavior of gene caused by administration of chemical substance, Gene No. 2494: Unigene No. Rn.23969; for Behavior of gene caused by administration of chemical substance, Gene No. 2546: Unigene No. Rn.24561; for Behavior of gene caused by administration of chemical substance, Gene No. 3776: Unigene No. Rn.43232; for Behavior of gene caused by administration of chemical substance, Gene No. 3929: Unigene No. Rn.4620; for Behavior of gene caused by administration of chemical substance, Gene No. 1119: Unigene No. Rn.9757; for Behavior of gene caused by administration of chemical substance, Gene No. 6742: Unigene No. Rn.9779; for Behavior of gene caused by administration of chemical substance, Gene No. 5634: Unigene No. Rn.9862; for Behavior of gene caused by administration of chemical substance, Gene No. 5726: gene group (D), Unigene No. Rn.9939
Outline: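 Male F344 SPF rats, 5 weeks old, four per group, received carcinogens, non-carcinogens or solvent vehicle by oral gavage once daily for 28 days. Liver total RNA was then extracted. Changes of ≥1.5-fold or ≤1/1.5 versus vehicle control, in a consistent direction across carcinogens, counted as significant.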

rodent = settings: in vivo; cited from earlier work

SMILES | Liver carcinogenicity (liver) | Behavior of gene caused by administration of chemical substance, Gene No. 4846 [2] | Behavior of gene caused by administration of chemical substance, Gene No. 2026 [2] | Behavior of gene caused by administration of chemical substance, Gene No. 4218 [2] | Behavior of gene caused by administration of chemical substance, Gene No. 6182 [2] | Behavior of gene caused by administration of chemical substance, Gene No. 5600 [2] | Behavior of gene caused by administration of chemical substance, Gene No. 1494 [2] | Behavior of gene caused by administration of chemical substance, Gene No. 2045 [2] | Behavior of gene caused by administration of chemical substance, Gene No. 2203 [2] | Behavior of gene caused by administration of chemical substance, Gene No. 533 [2] | Behavior of gene caused by administration of chemical substance, Gene No. 725 [2] | Behavior of gene caused by administration of chemical substance, Gene No. 1163 [2] | Behavior of gene caused by administration of chemical substance, Gene No. 4973 [2] | Behavior of gene caused by administration of chemical substance, Gene No. 4095 [2] | Behavior of gene caused by administration of chemical substance, Gene No. 1334 [2] | Behavior of gene caused by administration of chemical substance, Gene No. 6620 [2] | Behavior of gene caused by administration of chemical substance, Gene No. 6303 [2] | Behavior of gene caused by administration of chemical substance, Gene No. 5878 [2] | Behavior of gene caused by administration of chemical substance, Gene No. 1131 [2] | Carcinogenicity (rodent) | other results
C=C(C)[C@H]1CC=C(C)CC1 [TS024, D-Limonene] |  |  |  |  |  |  |  |  |  |  |  |  |  |  |  |  |  |  |  |  | Mutagenicity by Ames test [1]: M−
CC(O)CCl (centres unmarked) [TS079, 1-Chloro-2-propanol] | Cr− | − | − | − | + | − | − | + | + | − | − | − | − | − | − | − | − | − | − | C− | Behavior of gene caused by administration of chemical substance, Gene No. 1562 [2]: −; Behavior of gene caused by administration of chemical substance, Gene No. 1741 [2]: −; Behavior of gene caused by administration of chemical substance, Gene No. 893 [2]: −; Behavior of gene caused by administration of chemical substance, Gene No. 6026 [2]: −; Behavior of gene caused by administration of chemical substance, Gene No. 154 [2]: −; Behavior of gene caused by administration of chemical substance, Gene No. 1993 [2]: −; Behavior of gene caused by administration of chemical substance, Gene No. 813 [2]: −; Behavior of gene caused by administration of chemical substance, Gene No. 2494 [2]: −; Behavior of gene caused by administration of chemical substance, Gene No. 2546 [2]: −; Behavior of gene caused by administration of chemical substance, Gene No. 3776 [2]: −; Behavior of gene caused by administration of chemical substance, Gene No. 3929 [2]: −; Behavior of gene caused by administration of chemical substance, Gene No. 1119 [2]: −; Behavior of gene caused by administration of chemical substance, Gene No. 6742 [2]: −; Behavior of gene caused by administration of chemical substance, Gene No. 5634 [2]: −; Behavior of gene caused by administration of chemical substance, Gene No. 5726 [2]: +
O=[N+]([O-])c1cccc2ccccc12 [TS083, 1-Nitronaphthalene] | Cr− | − | + | − | − | − | + | − | − | + | + | − | + | + | + | + | + | − | − | C− | Behavior of gene caused by administration of chemical substance, Gene No. 1562 [2]: +; Behavior of gene caused by administration of chemical substance, Gene No. 1741 [2]: +; Behavior of gene caused by administration of chemical substance, Gene No. 893 [2]: +; Behavior of gene caused by administration of chemical substance, Gene No. 6026 [2]: +; Behavior of gene caused by administration of chemical substance, Gene No. 154 [2]: +; Behavior of gene caused by administration of chemical substance, Gene No. 1993 [2]: +; Behavior of gene caused by administration of chemical substance, Gene No. 813 [2]: +; Behavior of gene caused by administration of chemical substance, Gene No. 2494 [2]: −; Behavior of gene caused by administration of chemical substance, Gene No. 2546 [2]: +; Behavior of gene caused by administration of chemical substance, Gene No. 3776 [2]: +; Behavior of gene caused by administration of chemical substance, Gene No. 3929 [2]: +; Behavior of gene caused by administration of chemical substance, Gene No. 1119 [2]: +; Behavior of gene caused by administration of chemical substance, Gene No. 6742 [2]: +; Behavior of gene caused by administration of chemical substance, Gene No. 5634 [2]: −; Behavior of gene caused by administration of chemical substance, Gene No. 5726 [2]: −
O=P(OCCCl)(OCCCl)OCCCl [TS088, Tris(2-chloroethyl)phosphate] | Cr− |  |  |  |  |  |  |  |  |  |  |  |  |  |  |  |  |  |  | C+ | Behavior of gene caused by administration of chemical substance ([2]; rat, in vivo): − and +
